Results from US12344623B2, “Thiazolopyridine derivatives as adenosine receptor antagonists” (Merck Patent GmbH, priority 2019, dated 2025).
pIC50: −log10 of the molar value. Read-outs that look alike come from different tables or passages of the source.

Tests used:
Type in all cases: cell-based
human A3 receptor = target: T1, human A3 receptor (Homo sapiens, UniProt P0DMS8); experiment: Functional A3 receptor activity, recombinant CHO cells, cAMP (HTRF), forskolin, agonist IB-MECA; details: recombinant CHO cells, forskolin, agonist IB-MECA, read-out: Functional A3 receptor activity, CHO, cAMP, IC50
T1 construct: expressed in transfected cells; host or cells: CHO
T1 sequence (P0DMS8 1-318): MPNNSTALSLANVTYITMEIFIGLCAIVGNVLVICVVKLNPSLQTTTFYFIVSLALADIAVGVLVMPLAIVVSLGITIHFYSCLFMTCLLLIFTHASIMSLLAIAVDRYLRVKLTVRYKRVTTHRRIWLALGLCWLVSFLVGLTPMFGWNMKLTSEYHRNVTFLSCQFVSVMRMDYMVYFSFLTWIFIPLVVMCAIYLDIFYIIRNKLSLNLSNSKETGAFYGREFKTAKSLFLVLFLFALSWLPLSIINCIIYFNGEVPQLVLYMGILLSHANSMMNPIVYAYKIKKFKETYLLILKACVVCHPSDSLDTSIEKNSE
How it was run: (§1)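 Gi-coupled readout: CHO cells expressing human A1 or A3 receptor were treated with forskolin, test compound and agonist (CPA for A1, IB-MECA for A3) for 30 min; cellular cAMP was then measured by HTRF. Data were normalized to inhibitor and DMSO controls and curve-fitted.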

human A2B receptor = target: T2, human A2B receptor (Homo sapiens, UniProt P29275); experiment: Functional A2B receptor activity, recombinant HEK293 cells, cAMP (HTRF), agonist NECA; details: read-out: Functional A2B receptor activity, HEK293, cAMP, IC50
T2 construct: expressed in transfected cells; host or cells: HEK293
T2 sequence (P29275 1-332): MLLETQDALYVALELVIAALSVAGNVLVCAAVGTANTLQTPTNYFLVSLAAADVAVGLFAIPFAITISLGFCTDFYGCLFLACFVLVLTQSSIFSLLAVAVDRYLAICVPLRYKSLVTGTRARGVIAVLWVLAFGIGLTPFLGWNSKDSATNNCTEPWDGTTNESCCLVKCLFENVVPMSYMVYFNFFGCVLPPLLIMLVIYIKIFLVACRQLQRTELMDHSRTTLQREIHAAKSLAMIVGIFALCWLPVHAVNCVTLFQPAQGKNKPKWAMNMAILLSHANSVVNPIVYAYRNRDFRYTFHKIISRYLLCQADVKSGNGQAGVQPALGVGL
How it was run: (§2)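 Forskolin, test compounds and agonist were added together to the cells and incubated for 30 min. Cellular cAMP was then quantified by HTRF. Raw signals were normalized to an inhibitor control and a neutral DMSO control, and the normalized data were curve-fitted.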

human A1 receptor = target: T3, human A1 receptor (Homo sapiens, UniProt P30542); experiment: Functional A1 receptor activity, recombinant CHO cells, cAMP (HTRF), forskolin, agonist CPA; details: recombinant CHO cells, forskolin, agonist CPA, read-out: Functional A1 receptor activity, CHO, cAMP, IC50
T3 construct: expressed in transfected cells; host or cells: CHO
T3 sequence (P30542 1-326): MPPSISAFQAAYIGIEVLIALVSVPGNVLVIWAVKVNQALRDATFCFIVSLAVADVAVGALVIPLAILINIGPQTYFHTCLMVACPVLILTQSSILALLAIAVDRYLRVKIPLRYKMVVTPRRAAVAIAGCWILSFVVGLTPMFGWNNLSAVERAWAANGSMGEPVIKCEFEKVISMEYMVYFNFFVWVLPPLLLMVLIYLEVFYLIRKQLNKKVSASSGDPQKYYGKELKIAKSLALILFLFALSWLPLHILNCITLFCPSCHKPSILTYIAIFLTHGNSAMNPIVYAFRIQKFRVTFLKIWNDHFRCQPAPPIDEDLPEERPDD
How it was run: as §1

human A2A receptor = human A2A receptor (Homo sapiens, UniProt P29274); experiment: Functional A2A receptor activity, recombinant HEK293 cells, cAMP (HTRF), agonist NECA; design: expressed in transfected cells; host or cells: HEK293; details: read-out: Functional A2A receptor activity, HEK293, cAMP, IC50
human A2A receptor, sequence (P29274 whole entry): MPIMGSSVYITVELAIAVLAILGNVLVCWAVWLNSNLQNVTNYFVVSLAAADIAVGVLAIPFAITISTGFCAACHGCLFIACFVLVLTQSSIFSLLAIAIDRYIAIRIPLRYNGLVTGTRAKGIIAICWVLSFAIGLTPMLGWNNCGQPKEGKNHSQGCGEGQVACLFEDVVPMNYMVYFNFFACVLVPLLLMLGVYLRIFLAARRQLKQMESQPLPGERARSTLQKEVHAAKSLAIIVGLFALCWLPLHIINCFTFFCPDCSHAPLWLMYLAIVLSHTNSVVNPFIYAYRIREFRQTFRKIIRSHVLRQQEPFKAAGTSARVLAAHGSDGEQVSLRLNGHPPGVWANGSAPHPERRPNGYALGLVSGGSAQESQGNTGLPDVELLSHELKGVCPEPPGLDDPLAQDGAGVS
How it was run: as §2

Row | SMILES | pIC50 (human A3 receptor) | pIC50 (human A2B receptor) | pIC50 (human A1 receptor) | pIC50 (human A2A receptor) | pIC50 (human A3 receptor; cAMP) | pIC50 (human A1 receptor; cAMP)
1 | COc1ncc(C2=CCOCC2)c2sc(NC(=O)N3CC[C@@]4(CCCNC4)C3)nc12 [Compound 121, (R)-2,7-Diaza-spiro[4.5]decane-2-carboxylic acid [7-(3,6-dihydro-2H-pyran-4-yl)-4-methoxy-thiazolo[4,5-c]pyridin-2-yl]-amide] | < 6.00 | > 7.00 | < 6.00 | > 8.00 |  | 
2 | COc1ncc(C2=CCOCC2)c2sc(NC(=O)N3CC[C@]4(CCCNC4)C3)nc12 [Compound 122, (S)-2,7-Diaza-spiro[4.5]decane-2-carboxylic acid [7-(3,6-dihydro-2H-pyran-4-yl)-4-methoxy-thiazolo[4,5-c]pyridin-2-yl]-amide] | < 6.00 | > 7.00 | < 6.00 | > 8.00 |  | 
3 | COc1ncc(-c2ccccc2)c2sc(NC(=O)N3CCC(C(=O)N(C)C)CC3)nc12 [Compound 123, Piperidine-1,4-dicarboxylic acid 4-dimethylamide 1-[(4-methoxy-7-phenyl-thiazolo[4,5-c]pyridin-2-yl)-amide]] | < 6.00 | > 7.00 | < 6.00 | > 8.00 |  | 
4 | COc1ncc(-c2ccnc(N)c2)c2sc(NC(=O)N3CCC4(CCOCC4)C3)nc12 [Compound 124, 8-Oxa-2-aza-spiro[4.5]decane-2-carboxylic acid [7-(2-amino-pyridin-4-yl)-4-methoxy-thiazolo[4,5-c]pyridin-2-yl]-amide] | < 6.00 | > 8.00 | < 6.00 | > 8.00 |  | 
5 | COc1ncc(C2=CCOCC2)c2sc(NC(=O)c3ccc(C(=O)N4CCN(C)CC4)cc3)nc12 [Compound 125, N-[7-(3,6-Dihydro-2H-pyran-4-yl)-4-methoxy-thiazolo[4,5-c]pyridin-2-yl]-4-(4-methyl-piperazine-1-carbonyl)-benzamide] | < 6.00 | > 8.00 | > 6.00 | > 8.00 |  | 
6 | COc1ncc(C2=CCOCC2)c2sc(NC(=O)c3ccc(C(=O)N4CCC(C)(O)CC4)cc3)nc12 [Compound 129, N-[7-(3,6-Dihydro-2H-pyran-4-yl)-4-methoxy-thiazolo[4,5-c]pyridin-2-yl]-4-(4-hydroxy-4-methyl-piperidine-1-carbonyl)-benzamide] | < 6.00 | > 7.00 | > 6.00 | > 8.00 |  | 
7 | COc1ncc(C2=CCOCC2)c2sc(NC(=O)c3cnc4ccccn34)nc12 [Compound 135, Imidazo[1,2-a]pyridine-3-carboxylic acid [7-(3,6-dihydro-2H-pyran-4-yl)-4-methoxy-thiazolo[4,5-c]pyridin-2-yl]-amide] | > 6.00 | > 8.00 | > 6.00 | > 8.00 |  | 
8 | COc1ncc(C2=CCOCC2)c2sc(NC(=O)c3c[nH]c(-c4cccnc4)n3)nc12 [Compound 140, 2-Pyridin-3-yl-1H-imidazole-4-carboxylic acid [7-(3,6-dihydro-2H-pyran-4-yl)-4-methoxy-thiazolo[4,5-c]pyridin-2-yl]-amide] | < 6.00 | > 7.00 | > 6.00 | > 8.00 |  | 
9 | COc1ncc(-c2ccc(F)c(O)c2)c2sc(NC(=O)N3CCC4(CCOCC4)C3)nc12 [Compound 149, 8-Oxa-2-aza-spiro[4.5]decane-2-carboxylic acid [7-(4-fluoro-3-hydroxy-phenyl)-4-methoxy-thiazolo[4,5-c]pyridin-2-yl]-amide] | < 6.00 | > 8.00 | > 6.00 | > 8.00 |  | 
10 | COc1ncc(-c2cc(O)ccc2F)c2sc(NC(=O)N3CCC4(CCOCC4)C3)nc12 [Compound 150, 8-Oxa-2-aza-spiro[4.5]decane-2-carboxylic acid [7-(2-fluoro-5-hydroxy-phenyl)-4-methoxy-thiazolo[4,5-c]pyridin-2-yl]-amide] | < 6.00 | > 7.00 | < 6.00 | > 8.00 |  | 
11 | COc1ncc(-c2cccc(O)c2)c2sc(NC(=O)N3CCC4(CCOCC4)C3)nc12 [Compound 153, 8-Oxa-2-aza-spiro[4.5]decane-2-carboxylic acid [7-(3-hydroxy-phenyl)-4-methoxy-thiazolo[4,5-c]pyridin-2-yl]-amide] | < 6.00 | > 8.00 | > 6.00 | > 8.00 |  | 

Continued, values first:

Row | pIC50 (human A3 receptor) | pIC50 (human A2B receptor) | pIC50 (human A1 receptor) | pIC50 (human A2A receptor) | pIC50 (human A3 receptor; cAMP) | pIC50 (human A1 receptor; cAMP) | SMILES
12 | < 6.00 | > 8.00 | > 6.00 | > 8.00 |  |  | COc1ncc(C2=CCOCC2)c2sc(NC(=O)c3cnn(-c4ccccc4)c3)nc12 [Compound 156, 1-Phenyl-1H-pyrazole-4-carboxylic acid [7-(3,6-dihydro-2H-pyran-4-yl)-4-methoxy-thiazolo[4,5-c]pyridin-2-yl]-amide]
13 | < 6.00 | > 8.00 | > 6.00 | > 8.00 |  |  | COc1ncc(C2=CCOCC2)c2sc(NC(=O)c3cnn(-c4ccncc4)c3)nc12 [Compound 157, 1-Pyridin-4-yl-1H-pyrazole-4-carboxylic acid [7-(3,6-dihydro-2H-pyran-4-yl)-4-methoxy-thiazolo[4,5-c]pyridin-2-yl]-amide]
14 | < 6.00 | > 8.00 | > 6.00 | > 8.00 |  |  | COc1ncc(-c2cccc(Oc3cccnc3)c2)c2sc(NC(=O)N3CCC4(CCOCC4)C3)nc12 [Compound 160, 8-Oxa-2-aza-spiro[4.5]decane-2-carboxylic acid {4-methoxy-7-[3-(pyridin-3-yloxy)-phenyl]-thiazolo[4,5-c]pyridin-2-yl}-amide]
15 | < 6.00 | > 8.00 | > 6.00 | > 8.00 |  |  | COc1ncc(C2=CCOCC2)c2sc(NC(=O)c3c[nH]c(-c4ccccn4)n3)nc12 [Compound 162, 2-Pyridin-2-yl-1H-imidazole-4-carboxylic acid [7-(3,6-dihydro-2H-pyran-4-yl)-4-methoxy-thiazolo[4,5-c]pyridin-2-yl]-amide]
16 | < 6.00 | > 7.00 | < 6.00 | > 8.00 |  |  | COc1ncc(-c2cccc(NCc3cocn3)c2)c2sc(NC(=O)N3CCC4(CCOCC4)C3)nc12 [Compound 166, 8-Oxa-2-aza-spiro[4.5]decane-2-carboxylic acid (4-methoxy-7-{3-[(oxazol-4-ylmethyl)-amino]-phenyl}-thiazolo[4,5-c]pyridin-2-yl)-amide]
17 | < 6.00 | > 7.00 | < 6.00 | > 8.00 |  |  | COc1ncc([C@@H]2COCCO2)c2sc(NC(=O)c3ccc(C(=O)O)cc3)nc12 [Compound 169, N-((R)-7-[1,4]Dioxan-2-yl-4-methoxy-thiazolo[4,5-c]pyridin-2-yl)-terephthalamic acid]
18 | < 6.00 | > 7.00 | < 6.00 | > 7.00 |  |  | COc1ncc(I)c2sc(NC(=O)N3CCC4(CCOCC4)C3)nc12 [Compound 171, 8-Oxa-2-aza-spiro[4.5]decane-2-carboxylic acid (7-iodo-4-methoxy-thiazolo[4,5-c]pyridin-2-yl)-amide]
19 |  | < 6.00 |  | > 7.00 | < 6.00 | < 6.00 | COc1ccc(-c2ccccc2)c2sc(NC(=O)NCCN3CCCCC3)nc12 [drawing 187, reference compound]
20 |  | > 6.00 |  | > 8.00 | < 6.00 | < 6.00 | COc1cnc(N2CCOCC2)c2sc(NC(=O)N3CCC(CO)CC3)nc12 [drawing 188, reference compound]
